IC50 data for 27 compounds are collected here from patent US20240390340A1 (INCYTE CORPORATION, priority 2023, published 2024).

A value given as a limit tells only on which side of the number the result lay.

The target of experiment [1] is KRAS G12D (Homo sapiens, UniProt P01116, G12D). Kind of experiment: GDP-GTP exchange assay (bodipy-GDP/GppNHp, SOS1), KRAS G12D. In kind it is biochemical. Particulars: bodipy-loaded KRAS G12D 2.5 nM, 4 h pre-incubation; value for the most potent isomer quoted for certain compounds; read-out: G12D (KRAS G12D exchange assay IC50).
Chain of KRAS G12D (P01116 1-188 isoform P01116-2 G12D): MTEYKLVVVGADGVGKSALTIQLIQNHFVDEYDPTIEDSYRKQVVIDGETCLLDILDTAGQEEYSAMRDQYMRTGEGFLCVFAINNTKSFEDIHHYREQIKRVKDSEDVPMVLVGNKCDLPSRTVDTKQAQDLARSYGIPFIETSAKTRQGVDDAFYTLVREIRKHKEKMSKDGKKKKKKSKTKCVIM
Experiment [2] concerns the target KRAS G12V (Homo sapiens, UniProt P01116, G12V). The experiment in a line: GDP-GTP exchange assay (bodipy-GDP/GppNHp, SOS1), KRAS G12V. The following applies: KRAS G12V mutant; value for the most potent isomer quoted for certain compounds; read-out: G12V (KRAS G12V exchange assay IC50). The format is biochemical.

Chain of KRAS G12V (P01116 1-188 isoform P01116-2 G12V): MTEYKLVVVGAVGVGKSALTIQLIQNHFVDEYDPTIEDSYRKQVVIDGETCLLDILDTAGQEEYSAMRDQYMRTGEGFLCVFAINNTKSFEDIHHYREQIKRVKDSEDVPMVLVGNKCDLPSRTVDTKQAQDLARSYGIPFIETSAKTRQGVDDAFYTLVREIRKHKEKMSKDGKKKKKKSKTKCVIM

`COc1cc(O[C@H]2C[C@H](c3cc4c(C)nc5c(F)c(-c6cccc(Cl)c6Cl)c(CCC#N)cc5c4n3[C@H]3[C@H]4CN[C@@H]3C4)N(C(=O)C3CC3)C2)ccn1` [Example 304]: the IC50 in experiment [1] and in experiment [2] was no more than 100 nM throughout.
In the case of `C#Cc1ccc(O[C@H]2C[C@H](c3cc4c(C)nc5c(F)c(-c6cccc(Cl)c6Cl)c(CCC#N)cc5c4n3[C@H]3[C@H]4CN[C@@H]3C4)N(C(=O)C3CC3)C2)nc1` [Example 305], the IC50 in experiment [1] and in experiment [2] was no more than 100 nM in each case.
Take `Cc1nc(O[C@H]2C[C@H](c3cc4c(C)nc5c(F)c(-c6cccc(Cl)c6Cl)c(CCC#N)cc5c4n3[C@H]3[C@H]4CN[C@@H]3C4)N(C(=O)C3CC3)C2)ccc1C#N` [Example 306]: the half-maximal inhibitory concentration (IC50) in experiment [1] and in experiment [2] was no more than 100 nM in each case.
Turning to `COc1cccnc1O[C@H]1C[C@H](c2cc3c(C)nc4c(F)c(-c5cccc(Cl)c5Cl)c(CCC#N)cc4c3n2[C@H]2[C@H]3CN[C@@H]2C3)N(C(=O)C2CC2)C1` [Example 307], the half-inhibitory concentration (IC50) in experiment [1] and in experiment [2] was 100 to 1000 nM throughout.
Take `Cc1nc2c(F)c(-c3cccc(Cl)c3Cl)c(CCC#N)cc2c2c1cc([C@H]1C[C@H](Oc3ccc(C(F)(F)F)nc3)CN1C(=O)C1CC1)n2[C@H]1[C@H]2CN[C@@H]1C2` [Example 308]: the IC50 in experiment [1] and in experiment [2] was no more than 100 nM throughout.
Consider `Cc1nc2c(F)c(-c3cccc(Cl)c3Cl)c(CCC#N)cc2c2c1cc([C@H]1C[C@H](OCc3ccn(C(F)(F)F)n3)CN1C(=O)C1(C)CC1)n2[C@H]1[C@H]2CN[C@@H]1C2` [Example 310], for which the 50% inhibitory concentration (IC50) in experiment [1] and in experiment [2] was no more than 100 nM throughout.
For the compound `Cc1nc2c(F)c(-c3cccc(Cl)c3Cl)c(CCC#N)cc2c2c1cc([C@H]1C[C@H](OCc3cnn(C(F)(F)F)c3)CN1C(=O)C1CC1)n2[C@H]1[C@H]2CN[C@@H]1C2` [Example 311], the half-inhibitory concentration (IC50) in experiment [1] and in experiment [2] was no more than 100 nM in each case.
For `Cc1nc2c(F)c(-c3cccc(Cl)c3Cl)c(CCC#N)cc2c2c1cc([C@H]1C[C@H](OCc3ccnn3C(F)(F)F)CN1C(=O)C1CC1)n2[C@H]1[C@H]2CN[C@@H]1C2` [Example 312], the IC50 in experiment [1] and in experiment [2] was no more than 100 nM each time.
For the compound `Cc1nc2c(F)c(-c3cccc(Cl)c3Cl)c(CCC#N)cc2c2c1cc([C@H]1C[C@H](OCc3ccnn3C(F)F)CN1C(=O)C1CC1)n2[C@H]1[C@H]2CN[C@@H]1C2` [Example 313], the IC50 in experiment [1] and in experiment [2] was no more than 100 nM throughout.
In the case of `Cc1nc2c(F)c(-c3cccc(Cl)c3Cl)c(CCC#N)cc2c2c1cc([C@H]1C[C@H](n3cccn3)CN1C(=O)C1CC1)n2[C@H]1[C@H]2CN[C@@H]1C2` [Example 314], the IC50 in experiment [1] and in experiment [2] was no more than 100 nM in each case.
For `Cc1ccn([C@H]2C[C@H](c3cc4c(C)nc5c(F)c(-c6cccc(Cl)c6Cl)c(CCC#N)cc5c4n3[C@H]3[C@H]4CN[C@@H]3C4)N(C(=O)C3CC3)C2)n1` [Example 315], the IC50 in experiment [1] and in experiment [2] was no more than 100 nM in each case.
For the compound `Cc1nc2c(F)c(-c3cccc(Cl)c3Cl)c(CCC#N)cc2c2c1cc([C@H]1C[C@H](n3ccc(CC#N)n3)CN1C(=O)C1CC1)n2[C@H]1[C@H]2CN[C@@H]1C2` [Example 316], the IC50 in experiment [1] and in experiment [2] was no more than 100 nM throughout.
For the compound `Cc1nc2c(F)c(-c3cccc(Cl)c3Cl)c(CCC#N)cc2c2c1cc([C@H]1C[C@H](n3ccc(C#N)n3)CN1C(=O)C1CC1)n2[C@H]1[C@H]2CN[C@@H]1C2` [Example 317], the IC50 in experiment [1] and in experiment [2] was no more than 100 nM each time.
Take `Cc1nc2c(F)c(-c3cccc(Cl)c3Cl)c(CCC#N)cc2c2c1cc([C@H]1C[C@H](n3ccc(C(F)F)n3)CN1C(=O)C1CC1)n2[C@H]1[C@H]2CN[C@@H]1C2` [Example 318]: the concentration for half-maximal inhibition (IC50) in experiment [1] and in experiment [2] was no more than 100 nM in each case.
Consider `Cc1nc2c(F)c(-c3cccc(Cl)c3Cl)c(CCC#N)cc2c2c1cc([C@H]1C[C@H](n3ccc(N)n3)CN1C(=O)C1CC1)n2[C@H]1[C@H]2CN[C@@H]1C2` [Example 319], for which the half-maximal inhibitory concentration (IC50) in experiment [1] and in experiment [2] was no more than 100 nM throughout.
As for `Cc1nc2c(F)c(-c3cccc(Cl)c3Cl)c(CCC#N)cc2c2c1cc([C@H]1C[C@H](N3C(=O)COC3=O)CN1C(=O)C1CC1)n2[C@H]1[C@H]2CN[C@@H]1C2` [Example 320], the 50% inhibitory concentration (IC50) in experiment [1] and in experiment [2] was no more than 100 nM throughout.
Take `Cc1nc2c(F)c(-c3cccc(Cl)c3Cl)c(CCC#N)cc2c2c1cc([C@H]1C[C@H](n3c(=O)n(C)c4ccccc43)CN1C(=O)C1CC1)n2[C@H]1[C@H]2CN[C@@H]1C2` [Example 321]: the half-maximal inhibitory concentration (IC50) in experiment [1] was no more than 100 nM; in experiment [2], 100 to 1000 nM.
In the same order, the values of `Cc1nc2c(F)c(-c3cccc(Cl)c3Cl)c(CCC#N)cc2c2c1cc([C@H]1C[C@H](n3cc(CCC(=O)O)nn3)CN1C(=O)C1CC1)n2[C@H]1[C@H]2CN[C@@H]1C2` [Example 322] are no more than 100 nM and no more than 100 nM.
Taken in the same sequence, the figures for `Cc1nc2c(F)c(-c3cccc(Cl)c3Cl)c(CCC#N)cc2c2c1cc([C@H]1C[C@H](n3cc(CN4CCOCC4=O)nn3)CN1C(=O)C1CC1)n2[C@H]1[C@H]2CN[C@@H]1C2` [Example 323] were no more than 100 nM and no more than 100 nM.
In the same order, the values of `Cc1nc2c(F)c(-c3cccc(Cl)c3Cl)c(CCC#N)cc2c2c1cc([C@H]1C[C@H](n3cc(Cn4ccccc4=O)nn3)CN1C(=O)C1CC1)n2[C@H]1[C@H]2CN[C@@H]1C2` [Example 324] are no more than 100 nM and no more than 100 nM.
For the compound `Cc1nc2c(F)c(-c3cccc(Cl)c3Cl)c(CCC#N)cc2c2c1cc([C@H]1C[C@H](n3cc(C(C)N4CCOC4=O)nn3)CN1C(=O)C1CC1)n2[C@H]1[C@H]2CN[C@@H]1C2` (stereo partly drawn) [Example 325], the IC50 in experiment [1] and in experiment [2] was no more than 100 nM throughout.
For `Cc1nc2c(F)c(-c3cccc(Cl)c3Cl)c(CCC#N)cc2c2c1cc([C@H]1C[C@H](n3nnc(CO)c3C)CN1C(=O)C1CC1)n2[C@H]1[C@H]2CN[C@@H]1C2` [Example 326], the half-inhibitory concentration (IC50) in experiment [1] and in experiment [2] was no more than 100 nM each time.
Turning to `Cc1nnn([C@H]2C[C@H](c3cc4c(C)nc5c(F)c(-c6cccc(Cl)c6Cl)c(CCC#N)cc5c4n3[C@H]3[C@H]4CN[C@@H]3C4)N(C(=O)C3CC3)C2)c1CO` [Example 327], the IC50 in experiment [1] and in experiment [2] was no more than 100 nM each time.
Turning to `COc1ccnc(O[C@H]2C[C@H](c3cc4c(C)nc5c(F)c(-c6cccc(Cl)c6Cl)c(CCC#N)cc5c4n3[C@H]3[C@H]4CN[C@@H]3C4)N(C(=O)C3CC3)C2)c1` [Example 328], the IC50 in experiment [1] and in experiment [2] was no more than 100 nM throughout.
For the compound `Cc1nc2c(F)c(-c3cccc(Cl)c3Cl)c(CCC#N)cc2c2c1cc([C@H]1C[C@H](Oc3ccnc4c3CCO4)CN1C(=O)C1CC1)n2[C@H]1[C@H]2CN[C@@H]1C2` [Example 329], the concentration for half-maximal inhibition (IC50) in experiment [1] and in experiment [2] was no more than 100 nM each time.
Regarding `Cc1csnc1C(C)O[C@H]1C[C@H](c2cc3c(C)nc4c(F)c(-c5cccc(Cl)c5Cl)c(CCC#N)cc4c3n2[C@H]2[C@H]3CN[C@@H]2C3)N(C(=O)C2CC2)C1` (stereo partly drawn) [Example 330], the half-maximal inhibitory concentration (IC50) in experiment [1] and in experiment [2] was no more than 100 nM in each case.
With `Cc1csnc1C(C)O[C@H]1C[C@H](c2cc3c(C(C)O)nc4c(F)c(-c5cccc(Cl)c5Cl)c(CCC#N)cc4c3n2[C@H]2[C@H]3CN[C@@H]2C3)N(C(=O)C2CC2)C1` (stereo partly drawn) [Example 334], the IC50 in experiment [1] and in experiment [2] was no more than 100 nM throughout.

As a reminder, the IC50 is the concentration needed to halve the response being measured.
